Assay [1] deals with T1, Epidermal growth factor receptor (Homo sapiens, UniProt P00533). Briefly: Inhibition of human EGFR in presence of 1 uM ATP.
For assay [2], the target named is T1, Epidermal growth factor receptor. In words: Inhibition of human EGFR in presence of 1 mM ATP.
The target of assay [3] is T2, Vascular endothelial growth factor receptor 2 (Homo sapiens, UniProt P35968). In words: Inhibition of human VEGFR2 in presence of 1 mM ATP.
Assay [4] addresses T2, Vascular endothelial growth factor receptor 2. Briefly: Inhibition of human VEGFR2 in presence of 1 uM ATP.

T1 sequence (P00533 whole entry): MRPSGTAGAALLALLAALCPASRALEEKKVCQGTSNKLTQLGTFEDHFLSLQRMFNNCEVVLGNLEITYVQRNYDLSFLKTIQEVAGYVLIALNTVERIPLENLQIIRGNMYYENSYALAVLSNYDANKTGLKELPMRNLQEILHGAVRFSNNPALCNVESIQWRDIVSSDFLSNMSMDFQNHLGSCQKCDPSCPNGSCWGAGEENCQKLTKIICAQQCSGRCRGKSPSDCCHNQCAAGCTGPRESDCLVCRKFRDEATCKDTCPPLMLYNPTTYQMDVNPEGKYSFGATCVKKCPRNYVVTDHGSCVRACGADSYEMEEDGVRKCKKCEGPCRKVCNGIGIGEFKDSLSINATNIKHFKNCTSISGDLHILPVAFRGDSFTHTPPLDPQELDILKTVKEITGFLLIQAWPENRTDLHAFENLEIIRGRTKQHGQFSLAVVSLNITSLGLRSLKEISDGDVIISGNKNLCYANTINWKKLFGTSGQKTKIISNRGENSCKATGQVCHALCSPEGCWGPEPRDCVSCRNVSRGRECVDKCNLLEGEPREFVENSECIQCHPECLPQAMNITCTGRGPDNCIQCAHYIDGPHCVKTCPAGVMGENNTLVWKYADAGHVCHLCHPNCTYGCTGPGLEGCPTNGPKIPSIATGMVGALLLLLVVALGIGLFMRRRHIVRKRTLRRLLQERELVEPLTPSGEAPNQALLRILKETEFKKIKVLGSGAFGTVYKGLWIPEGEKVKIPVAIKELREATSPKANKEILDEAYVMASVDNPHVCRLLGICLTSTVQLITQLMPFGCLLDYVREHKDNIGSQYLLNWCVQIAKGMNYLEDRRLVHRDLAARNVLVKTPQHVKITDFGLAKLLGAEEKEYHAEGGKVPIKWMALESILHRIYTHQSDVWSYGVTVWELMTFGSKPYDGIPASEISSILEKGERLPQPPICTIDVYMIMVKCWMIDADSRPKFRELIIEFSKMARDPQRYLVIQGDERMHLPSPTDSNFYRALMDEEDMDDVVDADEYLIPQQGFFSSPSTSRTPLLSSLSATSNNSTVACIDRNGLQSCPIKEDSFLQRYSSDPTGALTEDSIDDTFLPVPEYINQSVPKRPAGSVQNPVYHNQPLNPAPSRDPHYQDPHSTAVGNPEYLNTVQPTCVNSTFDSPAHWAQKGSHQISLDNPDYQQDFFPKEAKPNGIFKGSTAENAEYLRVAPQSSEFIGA
T2 sequence (P35968 whole entry): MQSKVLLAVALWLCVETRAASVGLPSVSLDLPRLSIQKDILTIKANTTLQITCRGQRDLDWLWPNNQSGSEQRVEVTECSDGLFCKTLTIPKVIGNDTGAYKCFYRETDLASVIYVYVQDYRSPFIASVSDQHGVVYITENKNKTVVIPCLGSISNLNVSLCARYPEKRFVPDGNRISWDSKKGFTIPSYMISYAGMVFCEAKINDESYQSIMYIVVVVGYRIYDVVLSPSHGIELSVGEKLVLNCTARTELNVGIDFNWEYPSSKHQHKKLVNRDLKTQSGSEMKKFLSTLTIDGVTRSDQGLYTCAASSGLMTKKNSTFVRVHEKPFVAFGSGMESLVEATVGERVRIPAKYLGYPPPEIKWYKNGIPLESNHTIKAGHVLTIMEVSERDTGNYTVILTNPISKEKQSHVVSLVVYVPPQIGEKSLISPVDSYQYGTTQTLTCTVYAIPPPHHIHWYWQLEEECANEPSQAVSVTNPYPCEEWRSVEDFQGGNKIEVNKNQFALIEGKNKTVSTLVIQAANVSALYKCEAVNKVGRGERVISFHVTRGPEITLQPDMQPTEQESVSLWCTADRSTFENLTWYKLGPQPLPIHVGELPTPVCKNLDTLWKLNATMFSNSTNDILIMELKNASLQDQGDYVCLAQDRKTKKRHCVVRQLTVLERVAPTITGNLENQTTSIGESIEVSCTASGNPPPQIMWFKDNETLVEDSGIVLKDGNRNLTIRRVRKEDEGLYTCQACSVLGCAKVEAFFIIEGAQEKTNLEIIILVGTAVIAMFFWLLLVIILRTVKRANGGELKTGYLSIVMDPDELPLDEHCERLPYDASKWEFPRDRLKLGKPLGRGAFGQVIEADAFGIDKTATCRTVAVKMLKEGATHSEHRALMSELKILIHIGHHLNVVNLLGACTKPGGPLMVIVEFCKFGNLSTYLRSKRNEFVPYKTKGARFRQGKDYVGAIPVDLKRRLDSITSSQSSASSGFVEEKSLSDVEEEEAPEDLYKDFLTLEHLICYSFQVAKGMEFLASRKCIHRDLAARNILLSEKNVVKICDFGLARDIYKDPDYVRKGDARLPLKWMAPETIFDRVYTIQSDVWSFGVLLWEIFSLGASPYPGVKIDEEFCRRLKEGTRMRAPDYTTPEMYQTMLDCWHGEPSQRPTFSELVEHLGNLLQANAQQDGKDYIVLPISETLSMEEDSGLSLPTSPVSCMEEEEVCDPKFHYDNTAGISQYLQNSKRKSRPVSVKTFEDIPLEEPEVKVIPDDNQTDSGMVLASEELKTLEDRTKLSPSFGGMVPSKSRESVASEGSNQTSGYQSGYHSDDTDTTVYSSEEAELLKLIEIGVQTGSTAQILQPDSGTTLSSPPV

A word on the IC50: it is the concentration that gives 50% inhibition. For the compound `CCOc1cc2ncnc(NC3=CC(=O)C(OCc4cccc(OC)c4)=CC3=O)c2cc1NC(=O)/C=C/CN(C)C`, the IC50 in assay [1] was found to be 0.107 µM; in assay [2] it was 0.347 µM; in assay [3], 1.28 µM; in assay [4], 0.372 µM.

`CCOc1cc2ncnc(NC3=CC(=O)C(OCc4cccc(C)c4)=CC3=O)c2cc1NC(=O)/C=C/CN(C)C`: the IC50 in assay [1] worked out at 0.0249 µM; in assay [2], 0.173 µM; in assay [3], 0.613 µM; in assay [4] it was 0.189 µM.

For `CN(C)C/C=C/C(=O)Nc1ccc2ncnc(Nc3ccc(Br)cc3F)c2c1`, the IC50 in assay [1] was less than 0.01 µM; in assay [2] it was 0.704 µM.

`COCCOc1cc2ncnc(NC3=CC(=O)C(OCc4cccc(OC)c4)=CC3=O)c2cc1OC`: the IC50 was 7.71 µM in assay [1], greater than 10 µM in assay [2], 0.25 µM in assay [3] and 0.0502 µM in assay [4].

Regarding `COCCOc1cc2ncnc(NC3=CC(=O)C(OCc4ccccc4)=CC3=O)c2cc1OC`, the IC50 in assay [1] is greater than 10 µM; in assay [2], greater than 10 µM; in assay [3] it was 0.14 µM; in assay [4], 0.0537 µM.

`CCOc1cc2ncnc(NC3=CC(=O)C(OC(CF)CF)=CC3=O)c2cc1NC(=O)/C=C/CN(C)C`: the IC50 worked out at 0.283 µM in assay [1], 2.09 µM in assay [2], 0.303 µM in assay [3] and 0.109 µM in assay [4].

Consider `CCOc1cc2ncnc(NC3=CC(=O)C(OCc4ccc(F)c(F)c4)=CC3=O)c2cc1NC(=O)/C=C/CN(C)C`, for which the IC50 stood at 0.167 µM in assay [1], 0.894 µM in assay [2], 0.55 µM in assay [3] and 0.112 µM in assay [4].

Regarding `CCOc1cc2ncnc(NC3=CC(=O)C(OCc4ccccc4)=CC3=O)c2cc1NC(=O)/C=C/CN(C)C`, the IC50 in assay [1] was determined as 0.0187 µM; in assay [2], 0.216 µM; in assay [3] it was 0.783 µM; in assay [4] it was 0.102 µM.

Take `CCOc1cc2ncnc(NC3=CC(=O)C(OCc4cccc(Cl)c4)=CC3=O)c2cc1NC(=O)/C=C/CN(C)C`: the IC50 came out at 0.0122 µM in assay [1], 0.0356 µM in assay [2], 0.179 µM in assay [3] and 0.0802 µM in assay [4].

On to `CCOc1cc2ncnc(NC3=CC(=O)C(OCc4cccs4)=CC3=O)c2cc1NC(=O)/C=C/CN(C)C`, for which the 50% inhibitory concentration (IC50) in assay [1] turned out to be 0.0475 µM; in assay [2], 0.295 µM; in assay [3], 0.298 µM; in assay [4], 0.0762 µM.

For the compound `COc1cc2ncnc(Nc3cccc(Br)c3)c2cc1OC`, the IC50 in assay [3] is greater than 10 µM; in assay [4], 1.49 µM.

As to `COCCOc1cc2ncnc(NC3=CC(=O)C(OCc4cccc(F)c4)=CC3=O)c2cc1OC`, the IC50 was greater than 10 µM in assay [1], greater than 10 µM in assay [2], 0.188 µM in assay [3] and 0.0461 µM in assay [4].

`CCOc1cc2ncnc(NC3=CC(=O)C(OCc4ccccn4)=CC3=O)c2cc1NC(=O)/C=C/CN(C)C`: the IC50 in assay [1] amounted to 0.0908 µM; in assay [2], 0.792 µM; in assay [3] it was 1.01 µM; in assay [4], 0.135 µM.

Regarding `CCOc1cc2ncnc(NC3=CC(=O)C(OC)=CC3=O)c2cc1NC(=O)/C=C/CN(C)C`, the IC50 in assay [1] was 0.799 µM; in assay [2], greater than 10 µM; in assay [3], 1.4 µM; in assay [4] it was 0.379 µM.

Consider `CCOc1cc2ncnc(NC3=CC(=O)C(OCc4cccc(F)c4)=CC3=O)c2cc1NC(=O)/C=C/CN(C)C`, for which the IC50 was 0.0041 µM in assay [1], 0.0431 µM in assay [2], 0.348 µM in assay [3] and 0.113 µM in assay [4].

On to `CCOc1cc2ncc(C#N)c(Nc3ccc(OCc4ccccn4)c(Cl)c3)c2cc1NC(=O)/C=C/CN(C)C` [NERATINIB], for which the IC50 in assay [3] was greater than 10 µM; in assay [4], 0.858 µM.

As to `CCOc1cc2ncc(C#N)c(Nc3ccc(F)c(Cl)c3)c2cc1NC(=O)/C=C/CN(C)C` [PELITINIB], the IC50 is greater than 10 µM in assay [3] and 3.13 µM in assay [4].

The values are drawn from ChEMBL document CHEMBL1147965, “Dual irreversible kinase inhibitors: quinazoline-based inhibitors incorporating two independent reactive centers with each targeting different cysteine residues in the kinase domains of EGFR and VEGFR-2” (Bioorg Med Chem, 2007).
